Laboratory results reported in ChEMBL document CHEMBL3244027, “Syntheses, analgetic activity, and physical dependence capacity of 5-phenyl-6,7-benzomorphan derivatives” (J Med Chem, 1979).
Calls of active or inactive are those of the source. No cut-off for these calls is given here.

How the values were obtained:
[1] = tested on: Mus musculus; experiment: Analgetic activity against CF-1 mouse assessed as increase in reaction time at 320 mg/kg, po by heat stimulus induced tail flick response assay; format: functional, organism-based; design: dose 320 mg/kg
[2] = tested on: Mus musculus; experiment: Analgetic activity in sc dosed CF1S mouse assessed as writhing by phenylquinone writhing test; format: functional
[3] = tested on: Mus musculus; experiment: Analgetic activity in po dosed CF1S mouse assessed as writhing by phenylquinone writhing test; format: functional
[4] = Mus musculus, CF1S, sc, read-out: ED50
[5] = Mus musculus, CF1S, po, read-out: ED50

CCCCCN1CCC2(c3ccccc3)CC1Cc1ccc(O)cc12.Cl (racemic)
Activity [1]: inactive | ED50 [2, 4]: 23 mg/kg

C[C@@H]1C2Cc3ccc(O)cc3C1(c1ccccc1)CCN2C (some centres not stated)
ED50 [2, 4]: 0.5 mg/kg

CC1C2Cc3ccc(O)cc3C1(c1ccccc1)CCN2CCO (racemic)
ED50 [2, 4]: 44 mg/kg | ED50 [3, 5]: > 100 mg/kg

C=CCN1CCC2(c3ccccc3)c3cc(O)ccc3CC1C2C.CCCO.Cl (configuration not stated)
ED50 [2, 4]: > 100 mg/kg

CC1C2Cc3ccc(O)cc3C1(c1ccccc1)CCN2C (configuration not stated)
ED50 [2, 4]: 4.2 mg/kg

C[C@@H]1C2Cc3ccc(O)cc3C1(c1ccccc1)CCN2CCC(O)(c1ccccc1)c1ccccc1 (some centres not stated)
Activity [1]: inactive | ED50 [2, 4]: > 100 mg/kg

Cl.Oc1ccc2c(c1)C1(c3ccccc3)CCN(CCc3ccccc3)C(C2)C1 (configuration not stated)
ED50 [2, 4]: 7.4 mg/kg

CC(C)=CCN1CCC2(c3ccccc3)c3cc(O)ccc3CC1C2C.Cl (stereo in doubt; 169)
ED50 [2]: 41 mg/kg

Oc1ccc2c(c1)C1(c3ccccc3)CCN(CCc3cccs3)C(C2)C1 (racemic)
Activity [1]: inactive

Cl.Oc1ccc2c(c1)C1(c3ccccc3)CCN(CC3CCC3)C(C2)C1 (racemic)
ED50 [2]: 6.2 mg/kg | ED50 [3]: 124 mg/kg

CC1C2Cc3ccc(O)cc3C1(c1ccccc1)CCN2CCC(c1ccccc1)c1ccccc1 (stereo in doubt; 166)
Activity [1]: inactive

CC1C2Cc3ccc(O)cc3C1(c1ccccc1)CCN2C(=O)C12CC3CC(CC(C3)C1)C2 (configuration not stated)
ED50 [2, 4]: > 100 mg/kg

CC1C2Cc3ccc(O)cc3C1(c1ccccc1)CCN2CCC(C#N)(c1ccccc1)c1ccccc1 (stereo in doubt; 167) [listing 1 of 2 here]
Activity [1]: inactive

CC(C)O.CC1C2Cc3ccc(O)cc3C1(c1ccccc1)CCN2CC1CC1.Cl (stereo in doubt; 218)
ED50 [2]: >100 mg/kg

Cl.O=C(CCCN1CCC2(c3ccccc3)CC1Cc1ccccc12)c1ccc(F)cc1 (racemic)
ED50 [3, 5]: > 150 mg/kg

COc1ccc2c(c1)C1(c3ccccc3)CCN(C)C(C2)C1.Cl.O (configuration not stated)
ED50 [2, 4]: 16 mg/kg

CC1C2Cc3ccc(O)cc3C1(c1ccccc1)CCN2CCC(C#N)(c1ccccc1)c1ccccc1 (stereo in doubt; 167) [listing 2 of 2 here]
ED50 [2, 4]: 110 mg/kg | ED50 [3, 5]: > 100 mg/kg

CC1C2Cc3ccc(O)cc3C1(c1ccccc1)CCN2CCC(c1ccccc1)c1ccccc1 (stereo in doubt; 188)
Activity [1]: inactive

CC1C2Cc3ccc(OC(=O)c4c(Cl)cccc4Cl)cc3C1(c1ccccc1)CCN2C (configuration not stated)
ED50 [2, 4]: > 100 mg/kg

CC1C2Cc3ccc(O)cc3C1(c1ccccc1)CCN2CCCN(C)C (configuration not stated)
ED50 [2, 4]: > 120 mg/kg

CC(C)=CCN1CCC2(c3ccccc3)c3cc(O)ccc3CC1C2C.Cl (stereo in doubt; 207)
ED50 [2, 4]: 39 mg/kg

CC1C2Cc3ccc(O)cc3C1(c1ccccc1)CCN2C1CCCC1.Cl (configuration not stated)
ED50 [2, 4]: 120 mg/kg

COc1ccc2c(c1)C1(c3ccccc3)CCN(CC3CCC3)C(C2)C1.Cl.O (racemic)
ED50 [3, 5]: > 100 mg/kg

CN1CCC2(c3ccccc3)CC1Cc1ccc(O)cc12.Cl (stereo in doubt; 43)
ED50 [2, 4]: 5.5 mg/kg

CS(=O)(=O)O.c1ccc(CCN2CCC3(c4ccccc4)CC2Cc2ccccc23)cc1 (configuration not stated)
ED50 [2, 4]: > 100 mg/kg

CC1C2Cc3ccc(O)cc3C1(c1ccccc1)CCN2CCc1cccs1.Cl.O (configuration not stated)
ED50 [2, 4]: > 100 mg/kg | ED50 [3, 5]: > 100 mg/kg

CC(O)C(=O)O.CC1C2Cc3ccc(O)cc3C1(c1ccccc1)CCN2C/C=C/c1cccs1 (configuration not stated)
Activity [1]: inactive | ED50 [3, 5]: > 100 mg/kg

CC(C)O.CC1C2Cc3ccc(O)cc3C1(c1ccccc1)CCN2CC1CC1.Cl (stereo in doubt; 170)
ED50 [2, 4]: 100 mg/kg

CN1CCC2(c3ccccc3)CC1Cc1ccccc12.O=C(O)C(O)C(O)C(=O)O (stereo in doubt; 36)
ED50 [2, 4]: 5.5 mg/kg

CCCCC(=O)Oc1ccc2c(c1)C1(c3ccccc3)CCN(CC3CCC3)C(C2)C1.Cl (racemic)
ED50 [3, 5]: > 100 mg/kg

C=CCN1CCC2(c3ccccc3)CC1Cc1ccc(O)cc12 (racemic)
ED50 [2]: >100 mg/kg

CN1CCC2(c3ccccc3)CC1Cc1ccc(O)cc12.Cl (stereo in doubt; 42)
ED50 [2]: 5.6 mg/kg

CN1CCC2(c3ccc(O)cc3)CC1Cc1ccc(O)cc12 (racemic)
Activity [1]: inactive

Br.Oc1ccc2c(c1)C1(c3ccccc3)CCN(CCN3CCOCC3)C(C2)C1 (racemic)
Activity [1]: inactive | ED50 [2, 4]: > 100 mg/kg

CC(C)=CCN1CCC2(c3ccccc3)CC1Cc1ccc(O)cc12 (racemic)
ED50 [2, 4]: 15 mg/kg

CC(C)O.Cl.Oc1ccc2c(c1)C1(c3ccccc3)CCN(CC3CC3)C(C2)C1 (racemic)
ED50 [2, 4]: 33 mg/kg | ED50 [3, 5]: 107 mg/kg

CC1C2Cc3ccc(OC(=O)c4ccc([N+](=O)[O-])cc4)cc3C1(c1ccccc1)CCN2C (configuration not stated)
ED50 [2, 4]: 0.6 mg/kg

CC1C2Cc3ccc(O)cc3C1(c1ccccc1)CCN2CC1CCC1.Cl (stereo in doubt; 219)
ED50 [2]: 28 mg/kg | ED50 [3, 5]: 300 mg/kg

CN1CCC2(c3ccccc3)CC1Cc1ccccc12.O=C(O)C(O)C(O)C(=O)O (stereo in doubt; 37)
ED50 [2]: 8 mg/kg

CC(=O)CCN1CCC2(c3ccccc3)c3cc(O)ccc3CC1[C@H]2C.CS(=O)(=O)O (some centres not stated)
ED50 [3, 5]: > 100 mg/kg

C=C(Br)CN1CCC2(c3ccccc3)CC1Cc1ccc(O)cc12 (racemic)
ED50 [2, 4]: > 100 mg/kg

CCCN1CCC2(c3ccccc3)c3cc(O)ccc3CC1C2C.Cl (stereo in doubt; 173)
ED50 [2]: >100 mg/kg

Br.CC1C2Cc3ccc(O)cc3C1(c1ccccc1)CCN2CC1COc2ccccc2O1 (configuration not stated)
ED50 [2, 4]: 84 mg/kg | ED50 [3, 5]: > 100 mg/kg

CCCCCN1CCC2(c3ccccc3)c3cc(O)ccc3CC1C2C (configuration not stated)
ED50 [3, 5]: > 100 mg/kg

Cc1ccc(S(=O)(=O)Oc2ccc3c(c2)C2(c4ccccc4)CCN(C)C(C3)C2C)cc1.Cl (configuration not stated)
ED50 [2, 4]: > 100 mg/kg

COc1ccc2c(c1)C1(c3ccccc3)CCN(C)C(C2)C1 (racemic)
ED50 [2, 4]: 14 mg/kg

Cl.Oc1ccc2c(c1)C1(c3ccccc3)CCN(CC3CCC3)C(C2)C1 (stereo in doubt; 145)
ED50 [2]: 2.8 mg/kg | ED50 [3]: 34 mg/kg

CCCCCCCCCCN1CCC2(c3ccccc3)c3cc(O)ccc3CC1C2C.Cl (configuration not stated)
Activity [1]: inactive | ED50 [2, 4]: 70 mg/kg | ED50 [3, 5]: > 100 mg/kg

Cl.Oc1ccc2c(c1)C1(c3ccccc3)CCN(CC3CC3)C(C2)C1 (configuration not stated)
ED50 [2, 4]: 15 mg/kg

Br.Clc1ccc(C23CCN(CCc4ccccc4)C(Cc4ccccc42)C3)cc1 (racemic)
Activity [1]: inactive | ED50 [2, 4]: > 100 mg/kg

C#CCN1CCC2(c3ccccc3)CC1Cc1ccc(OC(=O)c3ccccc3)cc12 (racemic)
ED50 [2, 4]: > 100 mg/kg

Oc1ccc2c(c1)C1(c3ccccc3)CCNC(C2)C1 (configuration not stated)
Activity [1]: inactive

CC(C)O.Oc1ccc2c(c1)C1(c3ccccc3)CCNC(C2)C1 (configuration not stated)
ED50 [2, 4]: > 100 mg/kg

Br.CC1C2Cc3ccc(O)cc3C1(c1ccccc1)CCN2CCC(c1ccccc1)c1ccccc1.O (stereo in doubt; 166)
ED50 [2, 4]: > 100 mg/kg

Oc1ccc2c(c1)C1(c3ccccc3)CCNC(C2)C1 (racemic)
ED50 [2, 4]: > 100 mg/kg

CC1C2Cc3ccc(O)cc3C1(c1ccccc1)CCN2CC12CC3CC(CC(C3)C1)C2.Cl (configuration not stated)
Activity [1]: inactive | ED50 [3, 5]: > 100 mg/kg

Oc1ccc(C23CCNC(Cc4ccc(O)cc42)C3)cc1 (racemic)
Activity [1]: inactive

C[C@@H]1C2Cc3ccc(OS(C)(=O)=O)cc3C1(c1ccccc1)CCN2C (some centres not stated)
ED50 [2, 4]: 5.3 mg/kg

CC1C2Cc3ccc(O)cc3C1(c1ccccc1)CCN2C/C=C/Cl (configuration not stated)
Activity [1]: inactive | ED50 [2, 4]: > 100 mg/kg

Oc1ccc2c(c1)C1(c3ccccc3)CCN(C/C=C/c3ccccc3)C(C2)C1 (racemic)
Activity [1]: Active

CC(C)O.Cl.Oc1ccc2c(c1)C1(c3ccccc3)CCN(CC3CC3)C(C2)C1 (stereo in doubt; 144)
ED50 [2]: >33 mg/kg

CC(C)=CCN1CCC2(c3ccccc3)c3cc(OC(=O)c4ccccc4)ccc3CC1C2C (configuration not stated)
ED50 [2, 4]: > 100 mg/kg

CC1C2Cc3ccc(OC(=O)c4ccccc4)cc3C1(c1ccccc1)CCN2C (configuration not stated)
ED50 [2, 4]: 0.5 mg/kg

CC(C)=CCN1CCC2(c3ccccc3)c3cc(OC(=O)c4c(Cl)cccc4Cl)ccc3CC1C2C (configuration not stated)
ED50 [2, 4]: > 100 mg/kg

C=CCN1CCC2(c3ccccc3)CC1Cc1ccc(O)cc12 (stereo in doubt; 146) [listing 1 of 2 here]
ED50 [2]: >30 mg/kg

CCOC(=O)N1CCC2(c3ccccc3)CC1Cc1ccc(OC(C)=O)cc12 (racemic)
Activity [1]: inactive | ED50 [3, 5]: > 100 mg/kg

CC(C)=CCN1CCC2(c3ccccc3)c3cc(OS(=O)(=O)c4ccc(C)cc4)ccc3CC1C2C (configuration not stated)
ED50 [2, 4]: > 100 mg/kg

C=CCN1CCC2(c3ccccc3)CC1Cc1ccc(O)cc12 (stereo in doubt; 143)
ED50 [2]: >80 mg/kg

C=CCN1CCC2(c3ccccc3)CC1Cc1ccc(O)cc12 (stereo in doubt; 146) [listing 2 of 2 here]
Activity [1]: inactive

CC1C2Cc3ccc(OC(=O)C(c4ccccc4)c4ccccc4)cc3C1(c1ccccc1)CCN2C(=O)C(c1ccccc1)c1ccccc1.O (configuration not stated)
Activity [1]: inactive | ED50 [2, 4]: > 100 mg/kg

CC1C2Cc3ccc(O)cc3C1(c1ccccc1)CCN2 (stereo in doubt; 112)
Activity [1]: inactive

CC1C2Cc3ccc(O)cc3C1(c1ccccc1)CCN2CC1CCC1.CS(=O)(=O)O (racemic)
ED50 [3, 5]: > 100 mg/kg

CC1C2Cc3ccc(O)cc3C1(c1ccccc1)CCN2CCN1CCOCC1 (configuration not stated)
Activity [1]: inactive | ED50 [2, 4]: > 100 mg/kg | ED50 [3, 5]: > 100 mg/kg

CC1C2Cc3ccc(O)cc3C1(c1ccccc1)CCN2CC1CCC1.Cl (stereo in doubt; 171)
ED50 [2]: >100 mg/kg

Br.CC1C2Cc3ccc(O)cc3C1(c1ccccc1)CCN2CC(=O)c1ccccc1 (configuration not stated)
ED50 [2, 4]: > 100 mg/kg

Oc1ccc2c(c1)C1(c3ccccc3)CCN(CCCCc3ccccc3)C(C2)C1 (racemic)
Activity [1]: inactive | ED50 [3, 5]: > 100 mg/kg

CC1C2Cc3ccc(OC(=O)c4ccc(F)cc4)cc3C1(c1ccccc1)CCN2C (configuration not stated)
ED50 [2, 4]: 0.7 mg/kg

CC1C2Cc3ccc(O)cc3C1(c1ccccc1)CCN2C(=O)C12CC3CC(CC(C3)C1)C2.O (configuration not stated)
ED50 [3, 5]: > 100 mg/kg

C[C@@H]1C2Cc3ccc(O)cc3C1(c1ccccc1)CCN2CC(=O)O (some centres not stated)
ED50 [2, 4]: > 100 mg/kg

C/C(Cl)=C/CN1CCC2(c3ccccc3)CC1Cc1ccc(O)cc12 (racemic)
ED50 [2, 4]: > 100 mg/kg

CC1C2Cc3ccc(O)cc3C1(c1ccccc1)CCN2C(=O)C1CC1 (configuration not stated)
Activity [1]: inactive | ED50 [2, 4]: > 100 mg/kg

CCCN1CCC2(c3ccccc3)c3cc(O)ccc3CC1C2C.Cl (stereo in doubt; 163)
ED50 [2]: 14 mg/kg | ED50 [3, 5]: > 100 mg/kg

C#CCN1CCC2(c3ccccc3)c3cc(OC)ccc3CC1C2C (configuration not stated)
ED50 [2, 4]: > 100 mg/kg
